# From US20100217003A1, “1,2,3,4-TETRAHYDROISOQUINOLINE DERIVATIVES HAVING EFFECTS OF PREVENTING AND TREATING DEGENERATIVE AND INFLAMMATORY DISEASES” (priority 2006, published 2010)
# Assays:
# [1] = biological target: T1, GTP cyclohydrolase I (GTPCH) (Homo sapiens, UniProt P30793); assay: Direct effect on catalysis of GTPCH; assay type: biochemical; conditions: not illustrated
# T1 sequence (P30793 1-250): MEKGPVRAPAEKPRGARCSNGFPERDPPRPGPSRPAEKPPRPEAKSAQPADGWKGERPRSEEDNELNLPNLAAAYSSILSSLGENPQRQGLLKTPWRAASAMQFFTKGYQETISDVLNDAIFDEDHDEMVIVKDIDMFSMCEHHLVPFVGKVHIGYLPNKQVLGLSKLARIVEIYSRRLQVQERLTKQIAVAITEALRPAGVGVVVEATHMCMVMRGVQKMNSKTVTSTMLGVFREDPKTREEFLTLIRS
# BV-2 cell [2] = assay: Production of NADPH oxidase-derived superoxide in LPS-stimulated BV-2 cells (WST-1); assay type: cell-based, mouse
# Experimental: Measurement of Superoxide Production
# BV-2 microglial cells were planted in a 96-well Petri dish at 0.5×10^5 cells/ml. After a 24-hour culture, the cells were washed twice with Hank's balanced salt solution (HBSS) without phenol red and treated with EHMTIQ (11a) and WST-1. However, some samples were not treated with 20 ? superoxide dismutase (SOD; 800 UI/ml). All samples were incubaed at 37° C. for 10 minutes. The absorbance of a sample was read at 450 nm using a SpectraMax Plus microplate spectrophotometer. The yield of superoxide was calculated according to difference in absorbance value between the samples with and without SOD.
# The activation of a microglial cell led to the activation of NADPH oxidase and the production of superoxide. Accordingly, the assay was performed to determine whether EHMTIQ (11a) affects production of NADPH oxidase-derived superoxide. The LPS-stimulated BV-2 cell samples were treated with various concentrations of EHMTIQ (11a) and then the level of released superoxide was measured. The results are illustrated in FIG. 2.
# BV-2 cell [3] = assay: Cytotoxicity of single treatment in BV-2 cells; assay type: cell-based, mouse; conditions: single treatment (not illustrated)
# GTPCH mRNA = assay: Expression of GTPCH genes in LPS-stimulated BV-2 cells (RT-PCR); assay type: cell-based, mouse
# Experimental: (§1) RT-PCR for GTPCH, iNOS, TNF-α, IL-1β and COX-2
# (§2) 5 ? each of total RNA samples isolated from BV-2 cells were subjected to reverse-transcription (RT), and then polymerase chain reaction (PCR) for 30 cycles under the conditions of 94° C. for 30 seconds, 60° C. for 40 seconds and 72° C. for one minute. Primers used in the PCR were as follows: iNOS (forward, ATGTCCGAAG-CAAACATCAC; reverse, TAATGTC CAGGAAGTAGGTG), TNF-α (forward, CA-[…] reverse, CAGAGCAATGACTC-CAAAGTAGACCT), IL-1β (forward, […]; reverse, CAGGACAGGTAT AGATTCTTTCCTTT), COX-2 (forward, […]; reverse, […]), GTPCH (forward, GGATACCAGGAGACCAT CTCA; reverse, TAGCATGGTGC-TAGTGACAGT). RT-PCR for B2M was simultaneously performed as internal control. The PCR products were subjected to electrophoresis in a 1.5% agarose gel, thereby confirming the presence of a desired size of single band.
# GTP cyclohydrolase I (GTPCH) is a rate-limiting enzyme in the synthesis of tetrahydrobiopterin (BH4) which is essential for iNOS catalysis. Accordingly, the down regulation of GTPCH may lower NO production. The assay was performed to determine whether EHMTIQ (11a) affects the expression of GTPCH genes induced by LPS. The LPS-stimulated BV-2 cell samples were treated with various concentrations of EHMTIQ (11a) and the expression of GTPCH genes was estimated by RT-PCR. The results are illustrated in FIG. 7.
# COX-2 mRNA = assay: Expression of COX-2 genes in LPS-stimulated BV-2 cells (RT-PCR); assay type: cell-based, mouse
# Experimental: as §1, §2
# The gene expression of cyclooxigenase-2 (COX-2) stimulating a prostaglandin synthesis causing oxidative stress to neurons increased by the activation of a microglial cell. LPS-stimulated BV-2 cell samples were treated with various concentrations of EHMTIQ (11a), and the expression of COX-2 genes was estimated by RT-PCR. The results are illustrated in FIG. 5.
# [4] = Free-radical scavenging activity (DPPH); conditions: various concentrations
# Experimental: Measurement of Free-Radical Scavenging Activity
# Antioxidant activity was evaluated based on scavenging activity of 2,2-diphenyl-1-picrylhydrazyl (DPPH) radical. DPPH was dissolved in 80% methanol to make a final concentration of 100 ? . 8 ? of EHMTIQ (11a) dissolved in dimethyl sulfoxide reacted with 232 ? of DPPH radical solution. The reaction mixture was incubated for 25 minutes at RT, and then the absorbance of DPPH was measured at 517 nm using a SpectraMax GEMINI XS fluorescence spectrophotometer (Molecular Devices, Sunnyvale, Calif., USA).
# Free radicals produced by an activated microglial cell cause oxidative stress and structural transformation in protein, nucleic acid and lipids of a neuron, which lead to cell injury. Accordingly, the assay was performed to determine whether EHMTIQ (11a) has free radical scavenging activity.
# iNOS mRNA = assay: Expression of iNOS genes in LPS-stimulated BV-2 cells (RT-PCR); assay type: cell-based, mouse
# Experimental: as §1, §2
# The assay was performed to determine whether EHMTIQ (11a) affects the expression of iNOS genes. LPS-stimulated BV-2 cell samples were treated with various concentrations of EHMTIQ (11a), and the expression of iNOS gene was estimated by RT-PCR. The results are illustrated in FIG. 6.
compound,measurement,setting,value
"CCC(=O)N1CCc2cc(OC)c(O)cc2C1 [EHMTIQ (11a), 2-ethylcarbonyl-7-hydroxy-6-methoxy-1,2,3,4-tetrahydroisoquinoline]",direct effect on catalysis of GTPCH,[1],did not directly relate to the catalysis of GTPCH
same,superoxide production,BV-2 cell [2]; 5 (unit as image),62±3.1%
same,superoxide production,BV-2 cell [2]; 10 (unit as image),65±3.1%
same,cytotoxicity,BV-2 cell [3],did not exhibit any cytotoxicity
same,gene expression of GTPCH,GTPCH mRNA; 2.5 (unit as image),17±1%
same,gene expression of GTPCH,GTPCH mRNA; 100 (unit as image),75±1%
same,COX-2 expression,COX-2 mRNA; 2.5 (unit as image),62±3%
same,COX-2 expression,COX-2 mRNA; 5 (unit as image),75±3%
same,COX-2 expression,COX-2 mRNA; 10 (unit as image),83±2%
same,scavenging activity of DPPH radicals,[4],proportional to the concentration
same,expression of iNOS genes compared to the control only treated with LPS,iNOS mRNA; 5 (unit as image),82±1%
same,expression of iNOS genes compared to the control only treated with LPS,iNOS mRNA; 100 (unit as image),24±1%
